The values below come from publication doi:10.1101/2025.11.03.686228, “Design of Tissue-Selective PROTACs Through Recruiting E3 Ligase Scaffolding Protein MAGEA11” (bioRxiv, 2025).

In the experiment the target is T1, BRD4 (first bromodomain, BRD4-BD1) (Homo sapiens, UniProt O60885).
T1 construct: BRD4-BD1 (first bromodomain)
Description: fluorescence polarization competitive inhibition assay. The format is binding. (In general: In fluorescence polarisation assays a small probe gives low polarisation when free and higher when bound to something large.)

As usually defined, the Ki is the dissociation constant of the complex between target and ligand, obtained from inhibition or displacement. `Cc1sc2c(c1C)C(c1ccc(Cl)cc1)=N[C@@H](CC(=O)NCCOCCOCCOCCOCCOCCOCCOCCOCc1cn(-c3ccc4c(NCCCNCc5ccc6[nH]ccc6c5)ccnc4c3)nn1)c1nnc(C)n1-2` [105B] showed a Ki of 14.9 ± 0.97 nM.
